According to US12201592B2, “Combinations of IRS/STAT3 dual modulators and anti-cancer agents for treating cancer” (TYRNOVO LTD., priority 2015, dated 2025):
Like-named read-outs stand apart in the source and are kept apart here.

How the values were obtained:
[1] = tested on: Uteral AdenoSarcoma biopsy; assay: PDX efficacy study with Afinitor (Examples 4 and 5); details: phase I
Method: Treatments and Procedures
Treatment groups included: • 1. Control: 20% HPbCD 50 ul IP, qod (6 mice). • 2. […] Afinitor 5 mg/kg PO, qod (15 mice). • 4. Afinitor 5 mg/kg PO (qod)+Compound D 70 mg/kg IV (qod), 6 mice. Afinitor was administered ˜4 hr following Compound D.
All treatments were initiated simultaneously on day0.
The length (l) and the width (w) of the tumors were measured every other day and the volumes of the tumors were calculated as follows: v=lw^2/2.
Following treatments described in phase I (example 4), the mice whose tumors reached the end point were sacrificed, and the following treatments were continued.
• 1. The Afinitor-responder group (group A, open squares) was administered with Afinitor 5 mg/kg PO, qd (8 mice). • 2. The combined treatment group (open circles) continued to get the Afinitor 5 mg/kg PO (qod)+Compound D 70 mg/kg IV (qod) treatment (6 mice). Afinitor was administered ˜4 hr following Compound D. Phase III:
The group was divided to two groups of 4 mice each which received the following treatments on day6 onwards: • The first continued to get Afinitor 5 mg/kg PO, qd (4 mice) • and the second got Afinitor 5 mg/kg PO (qod)+Compound D 70 mg/kg IV (qod) combined treatment (4 mice). Afinitor was administered ˜4 hr following Compound D.

A375 melanoma cells = assay: Apoptosis after short exposure and wash-out; format: cell-based, human; details: 4 hr exposure, washed; 24 and 48 hr later (FIG. 6C)
Method: • Cells were treated as indicated in FIGS. 6-9 and the corresponding figure legends, following overnight serum-starvation (unless indicated differently). When cells were treated with both PLX4032 and compounds A or D, PLX4032 was added 3-4 hr following the compounds. • Cells were lysed with boiling sample buffer (10% glycerol, 50 mmol/L Tris-HCl, pH 6.8, 3% SDS, and 5% 2-mercaptoethanol). Western blot analysis was conducted in 8% SDS-PAGE, using antibodies described below. • Aliquots of cell extracts containing equal amounts of protein were resolved by 8% SDS/PAGE and electroblotted onto nitrocellulose filters. The membranes were blocked with low-fat milk diluted 1:20 in TBST (NaCl/Tris containing 0.2% Tween-20) for 0.5 hr, incubated with Rabbit anti-phosphoY705-Stat3 antibody (Cell signaling cat #9131), Mouse anti-ERK-diphosphorylated-YT (Sigma Aldrich cat #M8159) or anti-PARP antibodies overnight at 4 C in 5% BSA in TBST containing 0.05% azid, washed extensively with TBST and then incubated with horseradish peroxidase-conjugated secondary antibodies for 45 min at room temperature in 5% BSA in TB ST. • Immunoreactive bands were visualized using enhanced chemiluminescence. Membranes were re-blotted with Mouse anti-Stat3 antibody (Transduction labs cat #21320) or with Rabbit anti AKT1/2 (Santa cruz cat #sc-8312) or Anti-Actin as described above. IV. […]

PC3 = assay: Cell proliferation and viability, methylene-blue staining; format: cell-based; details: Homo sapiens, PC-3, 72 h; PC3, prostate cancer; 3 days exposure
Method: (§1) Cells were grown in complete medium and treated with inhibitors one day following seeding. 72 hours later, the surviving cells were quantified by methylene blue staining or by WST-1 staining for nonadherent cells (Roche).
(§2) Cells were plated in 96-well plates in 5-10% FCS in medium; a day later exposed to various concentrations of compound A, compound D or OSI-906 and 3 days later stained with methylene-blue and the relative cell number was quantified.

HepG2 = assay: as above; format: cell-based; details: Homo sapiens, 72 h; HepG2, hepatocarcinoma; 3 days exposure
Method: as §1, §2

[2] = tested on: pStat3 in A375, 451-Lu, Mel1617 cells; assay: Immunoblot of basal and PLX4032-induced pStat3 in PLX4032-sensitive melanoma cells; format: cell-based, human; details: PLX4032 1 μM added 3-4 hr after the compounds (FIG. 7C-E, 8A)
Method: FIGS. 7A-7E. […] FIG. 7A. […] FIG. 7B. […] Cells from patients were grown in complete medium and immunoblotted as described above. […] Compounds A/D block the basal and the PLX4032-induced pStat3. Treatment of PLX4032-sensitive human melanoma A375 (C), 451-Lu (D) or Mel1617 (E) cells with 1 μM PLX4032 for 18-24 hr induces a dramatic increase in pStat3. Compounds A (FIG. 7C, D) or D (FIG. 7E) block both the basal and the PLX4032-induced pStat3. OSI-906, an ATP-competitive inhibitor of IGF1R, has no effect on pStat3.
(§3) • Cells were treated as indicated in FIGS. 6-9 and the corresponding figure legends, following overnight serum-starvation (unless indicated differently). When cells were treated with both PLX4032 and compounds A or D, PLX4032 was added 3-4 hr following the compounds. • Cells were lysed with boiling sample buffer (10% glycerol, 50 mmol/L Tris-HCl, pH 6.8, 3% SDS, and 5% 2-mercaptoethanol). Western blot analysis was conducted in 8% SDS-PAGE, using antibodies described below. • Aliquots of cell extracts containing equal amounts of protein were resolved by 8% SDS/PAGE and electroblotted onto nitrocellulose filters. The membranes were blocked with low-fat milk diluted 1:20 in TBST (NaCl/Tris containing 0.2% Tween-20) for 0.5 hr, incubated with Rabbit anti-phosphoY705-Stat3 antibody (Cell signaling cat #9131), Mouse anti-ERK-diphosphorylated-YT (Sigma Aldrich cat #M8159) or anti-PARP antibodies overnight at 4 C in 5% BSA in TBST containing 0.05% azid, washed extensively with TBST and then incubated with horseradish peroxidase-conjugated secondary antibodies for 45 min at room temperature in 5% BSA in TB ST. • Immunoreactive bands were visualized using enhanced chemiluminescence. Membranes were re-blotted with Mouse anti-Stat3 antibody (Transduction labs cat #21320) or with Rabbit anti AKT1/2 (Santa cruz cat #sc-8312) or Anti-Actin as described above. IV. Chemotaxis of Peripheral Blood Mononuclear Cells (PBMCs)

[3] = tested on: pStat3 in 451-LU-BR, Mel1617-BR and patient cells M2068, M571; assay: Immunoblot of pStat3 in BRAFi-resistant melanoma cells; format: cell-based, human
Method: FIGS. 8A-8D. […] FIG. 8C. […] FIG. 8D. Cells of various cancer types were treated with compound D for 4 hr in serum-free medium, and 20 hr in medium with or without 10% serum. Asterisks indicate 10 μM concentration for RPMI8226 and HepG2 cells.
as §3

[4] = tested on: Adenoid Cyctic Carcinoma tumor biopsy; assay: PDX efficacy study with Trametinib (Example 9); format: in vivo, NodScid mice; details: day0-day13; start ~65 mm^3; Trametinib 1 mg/kg PO, Compound D 70 mg/kg IV
From the text: Experimental system: Patient-derived xenograft (PDX) of Adenoid Cyctic Carcinoma tumor biopsy subcutaneous implanted into NodScid mice.
• Biopsy: Fresh human primary Adenoid Cyctic Carcinoma tumor biopsy. […] The mice were randomly divided into treatment groups including 5 animals/group. The vehicle-treated group included 4 mice. II. Treatments and Procedures
Treatment groups included: • 1. Vehicle-control: vehicle of Trametinib (5% Propylene Glycol, 0.5% Tween-80, 30% PEG 400 in Sterile DDW) 200 μl PO (5 times/week, qd). • 2. […] Trametinib 1 mg/kg PO (5 times/week, qd). • 4.
(§6) The length (l) and the width (w) of the tumors were measured 2-4 times a week and the volumes of the tumors were calculated as follows: v=lw^2/2.

[5] = tested on: colon metastatic carcinoma biopsy; assay: PDX efficacy study with Cetuximab and FOLFIRI (Example 12); format: in vivo, NodScid mice; details: start ~110 mm^3; 14 days
Method: Experimental system: Patient-derived xenograft (PDX) of human primary colon metastatic carcinoma biopsy subcutaneous implanted into NodScid mice.
The length (l) and the width (w) of the tumors were measured 4 times a week and the volume of the tumors were calculated as follows: v=lw^2/2.

HCT15 = assay: Cell proliferation and viability, methylene-blue staining; format: cell-based; details: Homo sapiens, HCT-15, 72 h; HCT15, colon cancer; 3 days exposure
Method: as §2, with “Cells were grown in complete medium and treated with inhibitors one day following seeding. 72 hours later, the surviving cells were quantified by methylene blue staining or by WST-1 staining for nonadherent cells (Roche). Cells” for “Cells”

[6] = tested on: Squamous Cell carcinoma of Head&Neck (SCCHN) tumor biopsy; assay: PDX efficacy study, acquired resistance to Erlotinib (Example 1); details: start ~80 mm^3; Erlotinib 100 mg/kg PO, Compound D 70 mg/kg IV; two weeks
[7] = tested on: Uteral AdenoSarcoma biopsy; assay: PDX efficacy study with Afinitor, repeat (Example 5A); format: in vivo, NodScid mice; details: Afinitor 5 mg/kg PO, Compound D 70 mg/kg IV
Method: The experiment described in Example 4 was repeated in purchased mice from Harlan.
• 1. […] Afinitor 5 mg/kg PO, 4 times a week (17 mice). • 4.

451Lu-Pa = assay: Cell proliferation and viability, methylene-blue staining; format: cell-based; details: Homo sapiens, 72 h, melanoma, 3 days exposure
Method: (§4) All cell lines were obtained from the American Type Culture Collection. YUMAC, YURIF, YUSIK (all human melanoma, kindly provided by Prof. Ruth Halaban, Yale University, New Haven, Conn.) were cultured in OptiMEM containing 5% FCS. M571, M2068, M560n (all human melanoma, kindly provided by Dr. Michal Lotem, Hadassah Hospital, Jerusalem, Israel) were maintained in RPMI, DMEM and F12 (1:3:1) containing 10% FCS. 451-Lu (human melanoma) and 451-Lu-BR (PLX4032-resistant melanoma; ref. 32) were maintained in RPMI containing 5% FCS (media for resistant lines contained […] PLX4032). All media were supplemented with 100 U/mL penicillin and […] and all cells were grown at 37° C./5% CO2.
(§5) All melanoma cells used and discussed in FIGS. 6-9 and table 1 are from human origin and bearing the mutated BRAF^600K/E.
as §1, §2

451Lu-BR = assay: as above; format: cell-based; details: Homo sapiens, 72 h, melanoma, 3 days exposure
Method: as §4, §5, §1, §2

[8] = tested on: phospho-Y705 Stat3 (pSTAT3) in melanoma A375 cells; assay: Immunoblot of Stat3 Y705-phosphorylation in intact cells; format: cell-based, human; details: Homo sapiens, A-375
Method: FIGS. 6A-6E. […] A. Human melanoma A375 cells were treated with the indicated concentrations of compounds A or D for 1.3 and 4.5 hr. Cells were lysed and immunoblotted with antibodies against phospho-Y705 Stat3 (pSTAT3) and Stat3. […] B. Cells were treated with 2 μM Compound A and lysed following the indicated times. C. A375 cells were treated with compound D for 4 hr, then washed with medium several times and lysed after 4, 24 and 48 hr of incubation without inhibitors.
as §3

MM1S = assay: Cell proliferation and viability; format: cell-based; details: Homo sapiens, MM1.S, 72 h, multiple myeloma, 3 days exposure
Method: as §1, §2

Mel1617-Pa = assay: Cell proliferation and viability, methylene-blue staining; format: cell-based; details: Homo sapiens, 72 h, melanoma, 3 days exposure
Method: as §5, §1, §2

Mel1617-BR = assay: as above; format: cell-based; details: Homo sapiens, 72 h, melanoma, 3 days exposure
Method: as §5, §1, §2

HNSCC tumor biopsy = assay: PDX efficacy study, tumor recurrence after Cetuximab±Afatinib (Example 7); format: in vivo, NodScid mice; details: 9 days of treatment; start ~113 mm^3
Method: Experimental system: Patient-derived xenograft (PDX) of HNSCC tumor biopsy subcutaneous implanted into NodScid mice.
• Implantation of HNSCC tumor biopsy graft (P6) into NodScid mice for efficacy study: Few months following implantation of frozen HNSCC tumor biopsy graft (P1) in mice, tumor cells (P6) were injected into NodScid mice (generated by in-house breeding), using the same procedure described for implantation of P1. The original biopsy is the same as described above and the P indicates passages (implantation number in mice). • Onset of tumor growth (palpable tumor mass) was detected four days following cell injection. Five days later, treatments initiated in mice which developed tumors sized around 113 mm^3. […] Treatments and Procedures
Treatment groups included: • 1. Vehicle-control: Vehicle (0.5% Hydroxymethyl-cellulose, 0.4% Tween-80) 200 μl PO (5 times/week, qd). • 2. Compound D 70 mg/kg in HPbCD, IV (3 times/week, qod). • 3.
as §6

[9] = tested on: tumor pieces of pancreatic cancer liver metastasis PDX; assay: Culture of tumor pieces excised at the end of the experiment (Example 10); format: cell-based; details: three tumors per group; fixed and stained nine days later
Method: At the end of the experiment, tumor pieces, similar in size, from three tumors per group were cultured in separate plates to test their viability and proliferative activity.

[10] = tested on: pancreatic cancer metastasis from the liver; assay: PDX efficacy study with Gemcitabine (Example 10); format: in vivo, NodScid mice
Method: Experimental system: Patient-derived xenograft (PDX) of a biopsy of pancreatic cancer metastasis from the liver, subcutaneous implanted into NodScid mice.
• Implantation of pancreatic cancer metastasis from the liver RA_160 tumor biopsy graft (P5) into NodScid mice for efficacy study: Several weeks following implantation of pancreatic cancer liver metastasis biopsy graft in mice, tumor cells (P5) were injected into NodScid mice (generated by in-house breeding), using the same procedure described above. • Onset of tumor growth (palpable tumor mass) was detected ten days following cell injection. A week later (on da0), 19 mice with average tumor size of 90 mm^3 initiated treatments with Gemcitabine 25 mg/kg IP twice a week for 35 days. […] On day21 the average tumor size in Gemcitabine-treated group was ˜5 mm^3 as compared to 1400 mm^3 in the control group. • 42 days following initiation of treatment with Gemcitabine resistance developed and regressed tumors progressed. Four days later 16 mice of the Gemcitabine-treated group with average tumor volume of ˜110 mm^3 were divided to two groups as follows. II. Treatments
Treatment groups, following resistance to Gemcitabine has been acquired, included: • 1. Gemcitabine 25 mg/kg IP twice a week • 2. Gemcitabine 25 mg/kg IP+Compound D 70 mg/kg IV, twice a week.

Oc1cc(CNC(=S)/C=C/c2ccc(O)c(O)c2Br)cc(O)c1O [Compound D]
responder mice [1]: none of the mice responded
effect on tumor growth ([1]; four days, Afinitor 5 mg/kg PO, Compound D 70 mg/kg IV): no significant effect on tumor growth
cell apoptosis after short exposure (A375 melanoma cells): sufficient to induce cell apoptosis 24 and 48 hr later
IC50 (PC3): 500 nM
IC50 (HepG2): 700 nM
effect on basal and PLX4032-induced pStat3 levels [2]: block both the basal and the PLX4032-induced levels of pStat3
effect on Stat3 phosphorylation in PLX4032-resistant melanoma cells ([3]; 451-LU-BR, Mel1617-BR, patient cells M2068 and M571 (FIG. 8A-C)): block Stat3 phosphorylation completely
relative activity on pStat3 in melanoma cells from patients who acquired resistance to PLX4032 ([3]; FIG. 8C): better activity of compound D compared with compound A
tumor response, first phase [4]: moderate tumor growth inhibition
effect on tumor growth [5]: No effect on tumor growth
IC50 (HCT15): 800 nM
tumor response (tumor volume) [6]: has not responded
effect on tumor growth [7]: no effect on tumor growth
IC50 (451Lu-Pa): 300 nM
IC50 (451Lu-BR): 600 nM
IC50 ([8]; A375 cells, 1.3 hr post-treatment (FIG. 6A), read-out: IC50 of inhibition of Stat3 phosphorylation (pStat3)): ~2000 nM
IC50 ([8]; A375 cells, 3 hr later (4.5 hr treatment, FIG. 6A), read-out: IC50 of inhibition of Stat3 phosphorylation (pStat3)): < 1000 nM
IC50 ([8]; FIG. 6D, read-out: IC50 of dose-dependent inhibition of pStat3): < 1000 nM
IC50 (MM1S): 200 nM
IC50 (Mel1617-Pa): 200 nM
IC50 (Mel1617-BR): 300 nM
tumor response while on treatment (HNSCC tumor biopsy): aggressively progressed

Nc1ccn([C@@H]2O[C@H](CO)[C@@H](O)C2(F)F)c(=O)n1 [Gemcitabine]
proliferative activity of cultured tumor pieces [9]: massive proliferation
average tumor size on day21 ([10]; Gemcitabine 25 mg/kg IP twice a week, control 1400 mm^3): ~5 mm^3
tumor response on day11 ([10]; Gemcitabine 25 mg/kg IP twice a week, start 90 mm^3): all tumors in Gemcitabine-treated mice regressed
response of Gemcitabine-resistant tumors ([10]; start ~110 mm^3, after resistance was acquired): all tumors treated with Gemcitabine progressed
time from initiation of treatment until resistance developed ([10]; treated for 35 days): 42 days
